In PubChem BioAssay (NCI):
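Where inhibition never reached the appropriate level, the endpoint shown equals the highest concentration tested. Otherwise, values were interpolated linearly from a five-concentration, 48-hour dose response in 96-well plates. TGI: total growth inhibition.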

Assays:
Assay in all cases: NCI-60 cell line screen, 48 h
T-47D breast = system: T-47D breast
MCF7 breast = system: MCF7 breast
NCI/ADR-RES ovarian = system: NCI/ADR-RES ovarian
K-562 leukemia = system: K-562 leukemia
UACC-257 melanoma = system: UACC-257 melanoma
OVCAR-8 ovarian = system: OVCAR-8 ovarian
MDA-MB-435 = system: MDA-MB-435
A498 renal = system: A498 renal
NCI-H226 lung = system: NCI-H226 lung
LOX IMVI melanoma = system: LOX IMVI melanoma
SR leukemia = system: SR leukemia
NCI-H23 lung = system: NCI-H23 lung
SN12C renal = system: SN12C renal
BT-549 breast = system: BT-549 breast
OVCAR-5 ovarian = system: OVCAR-5 ovarian
HT29 colon = system: HT29 colon
MALME-3M melanoma = system: MALME-3M melanoma
HCT-116 colon = system: HCT-116 colon
CAKI-1 renal = system: CAKI-1 renal
RPMI-8226 leukemia = system: RPMI-8226 leukemia
OVCAR-4 ovarian = system: OVCAR-4 ovarian
UO-31 renal = system: UO-31 renal
SNB-19 CNS = system: SNB-19 CNS
A549 NSCLC = system: A549 NSCLC
DU-145 prostate = system: DU-145 prostate
SNB-75 CNS = system: SNB-75 CNS
TK-10 renal = system: TK-10 renal
IGROV1 ovarian = system: IGROV1 ovarian
UACC-62 melanoma = system: UACC-62 melanoma
MDA-N = system: MDA-N
SK-MEL-5 melanoma = system: SK-MEL-5 melanoma
SF-295 CNS = system: SF-295 CNS
KM12 colon = system: KM12 colon
SK-OV-3 ovarian = system: SK-OV-3 ovarian
ACHN renal = system: ACHN renal
MDA-MB-231 breast = system: MDA-MB-231 breast
CCRF-CEM leukemia = system: CCRF-CEM leukemia
EKVX NSCLC = system: EKVX NSCLC
NCI-H522 lung = system: NCI-H522 lung
SW-620 colon = system: SW-620 colon
MOLT-4 leukemia = system: MOLT-4 leukemia
RXF 393 renal = system: RXF 393 renal
M14 melanoma = system: M14 melanoma
OVCAR-3 ovarian = system: OVCAR-3 ovarian
HCT-15 colon = system: HCT-15 colon
U251 CNS = system: U251 CNS
COLO 205 colon = system: COLO 205 colon
786-0 renal = system: 786-0 renal
SK-MEL-28 melanoma = system: SK-MEL-28 melanoma
HOP-62 NSCLC = system: HOP-62 NSCLC
HCC-2998 colon = system: HCC-2998 colon
SF-268 CNS = system: SF-268 CNS
SK-MEL-2 melanoma = system: SK-MEL-2 melanoma
HS 578T breast = system: HS 578T breast
PC-3 prostate = system: PC-3 prostate
SF-539 CNS = system: SF-539 CNS
NCI-H460 lung = system: NCI-H460 lung
HL-60(TB) leukemia = system: HL-60(TB) leukemia
HOP-92 NSCLC = system: HOP-92 NSCLC

Measured: TGI

[O-][N+](CCO)(CCO)c1ncnc2nc[nH]c12
not listed: SF-539 CNS | NCI-H460 lung | HL-60(TB) leukemia | HOP-92 NSCLC
> 100 µM: all other assays above

COC(=O)C(=O)c1c2ccccc2n2ccc3c4ccccc4[nH]c3c12
not listed: A498 renal | SK-MEL-28 melanoma
> 10 µM: all other assays above

OCCOCn1cc(Cn2ncc3c(SCc4ccccc4)ncnc32)nn1
37 µM: MDA-N
45.1 µM: HL-60(TB) leukemia
99.2 µM: NCI-H522 lung
35.1 µM: MDA-MB-435
48.3 µM: MOLT-4 leukemia
not listed: SR leukemia | RPMI-8226 leukemia | CCRF-CEM leukemia
> 100 µM: all other assays above

NC(CNO)C(=O)O (configuration not stated)
21.7 µM: HL-60(TB) leukemia
not listed: K-562 leukemia | SR leukemia | CCRF-CEM leukemia | MOLT-4 leukemia | HCC-2998 colon
> 100 µM: all other assays above
